According to ChEMBL document CHEMBL1909564, “A modular approach to trim cellular targets in anticancer drug discovery” (Bioorg Med Chem Lett, 2011):
Blank lines part the entries; values can stand above or below the compound they belong to. Active and inactive are the calls of the source. No cut-off for these calls is given here.

Legend:
[1] = test system: Ishikawa; test: Growth inhibition of human Ishikawa cells; assay type: functional
[2] = test system: WiDr; test: Growth inhibition of human WiDr cells; assay type: functional
[3] = test system: T47D; test: Growth inhibition of human T47D cells; assay type: functional
[4] = test system: A2780; test: Growth inhibition of human A2780 cells; assay type: functional
[5] = test system: HeLa; test: Growth inhibition of human HeLa cells; assay type: functional
[6] = test system: HBL-100; test: Growth inhibition of human HBL100 cells; assay type: functional
[7] = test system: SW1573; test: Growth inhibition of human SW1573 cells; assay type: functional
[8] = test system: SW1573; test: Cell cycle arrest in human SW1573 cells assessed as accumulation at G2/M phase after 24 hrs by flow cytometry; assay type: functional, cell-based
[9] = test system: WiDr; test: Induction of apoptosis in human WiDr cells assessed as increase in sub-G1 DNA content at 7 to 21 uM after 24 hrs by flow cytometry; assay type: functional
[10] = test system: HeLa; test: Induction of apoptosis in human HeLa cells assessed as increase in sub-G1 DNA content at 7 to 21 uM after 24 hrs by flow cytometry; assay type: functional
[11] = test system: HeLa; test: Cell cycle arrest in human HeLa cells assessed as effect on cyclin B1 protein at 7 to 21 uM after 24 hrs by Western blot analysis; assay type: functional, cell-based
[12] = test system: HeLa; test: Cell cycle arrest in human HeLa cells assessed as phosphorylated histone H3 at ser10 at 21 uM after 24 hrs by flow cytometry (reference value: […]); assay type: functional
[13] = test system: HeLa; test: Cell cycle arrest in human HeLa cells assessed as accumulation at G2/M phase after 24 hrs by flow cytometry; assay type: functional, cell-based
[14] = test system: SW1573; test: Cell cycle arrest in human SW1573 cells assessed as decrease in cells at G1 phase at 7 to 21 uM after 24 hrs by flow cytometry; assay type: functional, cell-based
[15] = test system: WiDr; test: Cell cycle arrest in human WiDr cells assessed as decrease in cells at G1 phase at 7 to 21 uM after 24 hrs by flow cytometry; assay type: functional, cell-based
[16] = test system: HBL-100; test: Cell cycle arrest in human HBL100 cells assessed as decrease in cells at G1 phase at 7 to 21 uM after 24 hrs by flow cytometry; assay type: functional, cell-based
[17] = test system: HBL-100; test: Induction of apoptosis in human HBL100 cells assessed as increase in sub-G1 DNA content at 7 to 21 uM after 24 hrs by flow cytometry; assay type: functional
[18] = test system: HeLa; test: Cell cycle arrest in human HeLa cells assessed as decrease in cells at G1 phase at 7 to 21 uM after 24 hrs by flow cytometry; assay type: functional, cell-based
[19] = test system: HeLa; test: Cell cycle arrest in human HeLa cells assessed as increase in level of phosphorylated histone H3 at ser10 at 7 to 21 uM after 24 hrs by Western blot analysis; assay type: functional, cell-based
[20] = test system: HeLa; test: Cell cycle arrest in human HeLa cells assessed as increase in phosphorylated BubR1 level at 7 to 21 uM after 24 hrs by Western blot analysis; assay type: functional, cell-based
[21] = test system: HeLa; test: Induction of apoptosis in human HeLa cells assessed as PARP cleavage at 7 to 21 uM after 24 hrs by immunoblotting; assay type: functional, cell-based
[22] = test system: SW1573; test: Cell cycle arrest in human SW1573 cells assessed as decrease in cells at S phase at 7 to 21 uM after 24 hrs by flow cytometry; assay type: functional, cell-based
[23] = test system: T47D; test: Cell cycle arrest in human T47D cells assessed as decrease in cells at G1 phase at 7 to 21 uM after 24 hrs by flow cytometry; assay type: functional, cell-based
[24] = test system: SW1573; test: Induction of apoptosis in human SW1573 cells assessed as increase in sub-G1 DNA content at 7 to 21 uM after 24 hrs by flow cytometry; assay type: functional
[25] = test system: T47D; test: Induction of apoptosis in human T47D cells assessed as increase in sub-G1 DNA content at 7 to 21 uM after 24 hrs by flow cytometry; assay type: functional
[26] = test system: WiDr; test: Cell cycle arrest in human WiDr cells assessed as accumulation at G2/M phase after 24 hrs by flow cytometry; assay type: functional, cell-based
[27] = test system: HBL-100; test: Cell cycle arrest in human HBL100 cells assessed as accumulation at G2/M phase after 24 hrs by flow cytometry; assay type: functional, cell-based
[28] = test system: HeLa; test: Cell cycle arrest in human HeLa cells assessed as decrease in cells at S phase at 7 to 21 uM after 24 hrs by flow cytometry; assay type: functional, cell-based
[29] = test system: HBL-100; test: Cell cycle arrest in human HBL100 cells assessed as decrease in cells at S phase at 7 to 21 uM after 24 hrs by flow cytometry; assay type: functional, cell-based
[30] = test system: WiDr; test: Cell cycle arrest in human WiDr cells assessed as decrease in cells at S phase at 7 to 21 uM after 24 hrs by flow cytometry; assay type: functional, cell-based
[31] = test system: T47D; test: Cell cycle arrest in human T47D cells assessed as decrease in cells at S phase at 7 to 21 uM after 24 hrs by flow cytometry; assay type: functional, cell-based
[32] = test system: T47D; test: Cell cycle arrest in human T47D cells assessed as accumulation at G2/M phase after 24 hrs by flow cytometry; assay type: functional, cell-based
[33] = test system: HeLa; test: Cell cycle arrest in human HeLa cells assessed as decrease in phosphorylated RB protein at 7 to 21 uM after 24 hrs by Western blot analysis; assay type: functional, cell-based

SMILES: Cn1c(=O)c(=O)n(O)c2c(NCCN3CCOCC3)ncnc21
GI50 [1]: > 100 µM
GI50 [2]: > 100 µM
GI50 [3]: > 100 µM
GI50 [4]: > 100 µM
GI50 [5]: > 100 µM
GI50 [6]: > 100 µM
GI50 [7]: > 100 µM

SMILES: COc1cc([C@@H]2c3cc4c(cc3[C@@H](O[C@@H]3O[C@@H]5CO[C@@H](C)O[C@H]5[C@H](O)[C@H]3O)[C@H]3COC(=O)[C@H]23)OCO4)cc(OC)c1O [ETOPOSIDE]
GI50 [1]: 11 µM
GI50 [2]: 23 µM
GI50 [3]: 22 µM
GI50 [5]: 3 µM
GI50 [6]: 2.3 µM
GI50 [7]: 15 µM

SMILES: CSc1nc(N)c(N=O)c(NCCc2ccccc2)n1
GI50 [1]: > 100 µM
GI50 [2]: > 100 µM
GI50 [3]: > 100 µM
GI50 [4]: > 100 µM
GI50 [5]: 27 µM
GI50 [6]: 12 µM
GI50 [7]: 37 µM

Further lines, with some results ahead:

GI50 [3]: > 100 µM
GI50 [4]: > 100 µM
GI50 [5]: > 100 µM
GI50 [7]: 59 µM
SMILES: Cn1c(=O)c(=O)n(O)c2c(NCCc3ccccc3)ncnc21
GI50 [1]: > 100 µM
GI50 [2]: > 100 µM
GI50 [6]: 54 µM

GI50 [3]: 7 µM
GI50 [4]: 3.4 µM
GI50 [5]: 4.5 µM
GI50 [7]: 3.2 µM
SMILES: CNc1ncnc(NCCc2ccccc2)c1N=O
Activity [8]: Dose-dependent effect
Activity [9]: <8.5%
Activity [10]: <8.5%
Activity [11]: inactive
Activity [12]: 15.1%
Activity [13]: Dose-dependent effect
Activity [14]: Active
Activity [15]: Active
GI50 [1]: 3.8 µM
GI50 [2]: 7.2 µM
Activity [16]: Active
Activity [17]: <8.5%
Activity [18]: Active
Activity [19]: Active
Activity [20]: Active
Activity [21]: inactive
Activity [22]: Active
Activity [23]: Active
Activity [24]: <8.5%
Activity [25]: <8.5%
GI50 [6]: 3.6 µM
Activity [26]: Dose-dependent effect
Activity [27]: Dose-dependent effect
Activity [28]: Active
Activity [29]: Active
Activity [30]: Active
Activity [31]: Active
Activity [32]: Dose-dependent effect
Activity [33]: Active

GI50 [3]: 0.00015 µM
GI50 [4]: 0.00027 µM
GI50 [7]: 0.005 µM
SMILES: CC(=O)O[C@H]1C(=O)[C@@]2(C)[C@H]([C@H](OC(=O)c3ccccc3)[C@]3(O)C[C@H](OC(=O)[C@H](O)[C@@H](NC(=O)c4ccccc4)c4ccccc4)C(C)=C1C3(C)C)[C@]1(OC(C)=O)CO[C@@H]1C[C@@H]2O [PACLITAXEL]
GI50 [2]: 0.00022 µM
GI50 [6]: 1.7e-05 µM
